Data on seven compounds can be found in patent US20250154169A1, “COMPOUNDS AND METHODS FOR MODULATING SPLICING” (REMIX THERAPEUTICS INC., priority 2021, published 2025).

What all share (format): cell-based, human
Assay [1] relates to HTT mRNA. The assay can be described thus: Splicing RT-qPCR assay, HTT canonical (CJ) and alternative (AJ) junction mRNA. The following applies: Homo sapiens, A673 or K562 cells, 24 hours compound treatment; for IC50: 24 h, read-out: HTT CJ (IC50, decrease in canonical junction mRNA); for AC50: read-out: HTT AJ (AC50, increase in alternative junction mRNA). In outline:
(§1)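 One-step RT-qPCR on cell lysates, CJ and AJ isoforms quantified; housekeeping normalization GAPDH/GUSB (K562) or PPIA (A673). Cells: A673 in DMEM/10% FBS or K562 in IMDM/10% FBS. Compounds 11-pt 3-fold, top 10 uM, 24 h, 37 °C, 5% CO2.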
For orientation: In qPCR the cycle at which signal appears reflects the starting amount.

A further assay deals with MYB mRNA. As to the kind of experiment: Splicing RT-qPCR assay, MYB canonical (CJ) and alternative (AJ) junction mRNA. Conditions: Homo sapiens; for AC50: read-out: MYB AJ (AC50, increase in alternative junction mRNA). Put shortly: as §1
The subject of another assay is SMN2 mRNA. As to the kind of experiment: Splicing RT-qPCR gene panel, SMN2 canonical junction (CJ) mRNA. Conditions: Homo sapiens, Tables 4A/4B, read-out: SMN2 (IC50, decrease in CJ mRNA, gene panel). Put shortly: (§2)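 Cells (A673 in DMEM/10% FBS, K562 in IMDM/10% FBS) got compound for 24 h, top dose 10 uM, 11 points, 3-fold steps, DMSO ≤0.25%. Lysates went to RT-qPCR for the canonical exon-exon junction; ΔΔCt against housekeeper and DMSO gave RQ, then percentage response.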

Another assay concerns Target C mRNA. As to the kind of experiment: Splicing RT-qPCR gene panel, Target C canonical junction (CJ) mRNA. The following applies: Homo sapiens, Tables 4A/4B, read-out: Target C (IC50, decrease in CJ mRNA, gene panel). Put shortly: as §2
Assay [2] relates to HTT mRNA. The assay can be described thus: Splicing RT-qPCR gene panel, HTT canonical junction (CJ) mRNA. The following applies: Homo sapiens, Tables 4A/4B, read-out: HTT (IC50, decrease in CJ mRNA, gene panel). Put shortly:
as §2

Where [3] appears, read: 24 h, A673 or K562 cells, 24 hours compound treatment, RT-qPCR.
The mark [4] stands for this setting: 24 h, A673 or K562 cells, 24 hours compound treatment, RT-qPCR, read-out: MYB CJ (IC50, decrease in canonical junction mRNA).
[5] abbreviates: Tables 4A/4B, canonical junction qPCR panel, read-out: MYB (IC50, decrease in CJ mRNA, gene panel).

The structures appear in SMILES notation. Structures can show the parent of a compound that is named as a salt. Where two headings read alike, the source gives them in different places. Bounds are passed on as bounds.

For `Cc1cn2cc(NC(=O)c3ccc(N4CCNCC4)c4cn(C5CC5)nc34)cc(F)c2n1` [Compound 294, 2-cyclopropyl-N-{8-fluoro-2-methylimidazo[1,2-a]pyridin-6-yl}-4-(piperazin-1-yl) indazole-7-carboxamide], the IC50 with HTT mRNA [1] is 100 to 1000 nM; in the assay on MYB mRNA (setting [4]), below 100 nM; in the assay on MYB mRNA (setting [5]), below 100 nM; in the assay with SMN2 mRNA, below 100 nM; in the assay with Target C mRNA, above 10000 nM; in the assay on HTT mRNA [2] it was 100 to 1000 nM. The concentration at half-maximal activity (AC50) in the assay with HTT mRNA [1] was 1000 to 10000 nM; in the assay on MYB mRNA (setting [3]) it was below 100 nM.

Take `Cc1cn2cc(NC(=O)c3ccc(N4CCNCC4)c4cn(C5COC5)nc34)cc(F)c2n1` [Compound 295, N-{8-fluoro-2-methylimidazo[1,2-a]pyridin-6-yl}-2-(oxetan-3-yl)-4-(piperazin-1-yl)indazole-7-carboxamide]: the IC50 in the assay on HTT mRNA [1] was above 10000 nM; in the assay with MYB mRNA (setting [4]) it was 100 to 1000 nM; in the assay with MYB mRNA (setting [5]) it was 100 to 1000 nM; in the assay with SMN2 mRNA it was below 100 nM; in the assay on Target C mRNA it was above 10000 nM; with HTT mRNA [2], above 10000 nM. The AC50 in the assay with HTT mRNA [1] lay within 1000 to 10000 nM; with MYB mRNA (setting [3]), 100 to 1000 nM.

Take `Cc1cn2cc(NC(=O)c3ccc(N4CCC(NC5CC5)C4)c4cn(C)nc34)cc(F)c2n1` (centres unmarked) [Compound 296, 4-[3-(cyclopropylamino)pyrrolidin-1-yl]-N-{8-fluoro-2-methylimidazo[1,2-a]pyridin-6-yl}-2-methylindazole-7-carboxamide]: the IC50 was above 10000 nM with HTT mRNA [1]; below 100 nM in the assay with MYB mRNA (setting [4]); below 100 nM with MYB mRNA (setting [5]); below 100 nM with SMN2 mRNA; above 10000 nM with Target C mRNA; above 10000 nM in the assay on HTT mRNA [2]. In addition, the AC50 with HTT mRNA [1] was above 10000 nM; in the assay on MYB mRNA (setting [3]) it was below 100 nM.

As to `Cc1cn2cc(NC(=O)c3ccc(N4CCNCC4)c4c(C)n(C)nc34)cc(F)c2n1` [Compound 297], the IC50 in the assay on HTT mRNA [1] was in the range of 1000 to 10000 nM; in the assay with MYB mRNA (setting [4]), 1000 to 10000 nM; in the assay on MYB mRNA (setting [5]), 1000 to 10000 nM; in the assay on SMN2 mRNA, 100 to 1000 nM; in the assay with Target C mRNA, 1000 to 10000 nM; in the assay with HTT mRNA [2] it was 1000 to 10000 nM. Further, the AC50 in the assay with HTT mRNA [1] and in the assay with MYB mRNA (setting [3]) was 1000 to 10000 nM each time.

On to `CNC1CCN(c2ccc(C(=O)Nc3cc(F)c4nc(C)cn4c3)c3nn(C)cc23)C1` (centres unmarked) [Compound 298, N-{8-fluoro-2-methylimidazo[1,2-a]pyridin-6-yl}-2-methyl-4-[3-(methylamino)pyrrolidin-1-yl]indazole-7-carboxamide trifluoroacetic acid salt], for which the IC50 was 1000 to 10000 nM in the assay with HTT mRNA [1]; below 100 nM with MYB mRNA (setting [4]); below 100 nM in the assay on MYB mRNA (setting [5]); below 100 nM in the assay with SMN2 mRNA; 1000 to 10000 nM with Target C mRNA; 1000 to 10000 nM with HTT mRNA [2]. Moreover, the AC50 in the assay on HTT mRNA [1] lay within 1000 to 10000 nM; in the assay on MYB mRNA (setting [3]), 100 to 1000 nM.

As for `Cc1cn2cc(NC(=O)c3ccc(N4CCC5(CCN5)C4)c4cn(C)nc34)cc(F)c2n1` (centres unmarked) [Compound 299, 4-{1,6-diazaspiro[3.4]octan-6-yl}-N-{8-fluoro-2-methylimidazo[1,2-a]pyridin-6-yl}-2-methylindazole-7-carboxamide], the IC50 in the assay on HTT mRNA [1] is above 10000 nM; in the assay with MYB mRNA (setting [4]), 100 to 1000 nM; in the assay on MYB mRNA (setting [5]), 100 to 1000 nM; in the assay with SMN2 mRNA, below 100 nM; in the assay on Target C mRNA it was above 10000 nM; in the assay with HTT mRNA [2] it was above 10000 nM. Also, the figures for the AC50 in the assay on HTT mRNA [1] and in the assay on MYB mRNA (setting [3]) were above 10000 nM and 100 to 1000 nM, respectively.

For `Cc1cn2cc(NC(=O)c3cc(C)c(N4CCNCC4)c4cn(C)nc34)cc(F)c2n1` [Compound 300], the IC50 with HTT mRNA [1] was above 10000 nM; in the assay on MYB mRNA (setting [4]), 1000 to 10000 nM; with MYB mRNA (setting [5]), 1000 to 10000 nM; in the assay with SMN2 mRNA, 100 to 1000 nM; with Target C mRNA, above 10000 nM; in the assay on HTT mRNA [2] it was above 10000 nM. The half-maximal activity concentration (AC50) with HTT mRNA [1] was above 10000 nM; with MYB mRNA (setting [3]), 100 to 1000 nM.

A word on the IC50: it is the midpoint of a concentration-inhibition curve. Broadly, the AC50 is the concentration giving half of the maximal activity seen.
